# Calls of active or inactive are those of the source. The calls are words filed in the database; no cut-off is given here.
# Experiments:
# Type in all cases: cell-based
# [1] = target: T1, Retinoic acid receptor alpha (Homo sapiens) (UniProt P10276); test: Antagonist activity at RARalpha in human MCF7 cells assessed as inhibition of ATRA-induced luciferase activity at 0.1 to 1 nM after 48 hrs by luciferase reporter gene assay
# T1 sequence (whole entry): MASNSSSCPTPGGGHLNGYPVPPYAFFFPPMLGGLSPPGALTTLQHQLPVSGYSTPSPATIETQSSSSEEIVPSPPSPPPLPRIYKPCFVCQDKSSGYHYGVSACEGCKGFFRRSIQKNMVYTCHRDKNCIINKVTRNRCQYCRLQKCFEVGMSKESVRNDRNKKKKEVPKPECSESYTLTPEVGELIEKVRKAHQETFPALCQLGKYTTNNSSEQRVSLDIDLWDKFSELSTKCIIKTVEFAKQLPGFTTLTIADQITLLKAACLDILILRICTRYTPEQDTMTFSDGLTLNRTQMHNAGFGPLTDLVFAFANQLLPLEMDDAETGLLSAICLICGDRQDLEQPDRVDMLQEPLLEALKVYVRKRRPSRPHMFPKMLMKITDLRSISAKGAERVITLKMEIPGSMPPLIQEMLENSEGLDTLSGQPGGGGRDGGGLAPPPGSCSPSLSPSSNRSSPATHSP
# [2] = target: T1, Retinoic acid receptor alpha (Homo sapiens); test: Antagonist activity at RARalpha in human MCF7 cells assessed as inhibition of ATRA-induced luciferase activity at 10 nM after 48 hrs by luciferase reporter gene assay
# [3] = target: T1, Retinoic acid receptor alpha (Homo sapiens); test: Antagonist activity at RARalpha in human MCF7 cells assessed as inhibition of ATRA-induced luciferase activity after 48 hrs by luciferase reporter gene assay
inhibition [1],inhibition [2],inhibition [3],SMILES
Active,,,Cc1ccc(C2=CC(C)(C)Oc3c(Br)cc(C(=O)Nc4ccc(C(=O)O)c(F)c4)cc32)cc1
,Active,Dose-dependent effect,Cc1ccc(C2=CC(C)(C)Oc3c(Br)cc(C(=O)Nc4ccc(C(=O)O)cc4)cc32)cc1
